Experimental data reported in PubChem BioAssay AID2060496 (Molecular Pharmacology Branch, DTP, NCI, 2025).
pIC50: −log10 of the molar value.

System: 276233-004-R-J1-PDC complex spheroid viability
Test: Anticancer human tumor 276233-004-R-J1-PDC patient-derived colon adenocarcinoma cell line growth inhibition [GQUAD]
Settings: for pIC50: curve of first compound; for viability, T/C: stronger effect = lower value
In short: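 Viability of tumor cells grown as complex spheroids with endothelial and stromal cells, exposed to drug combinations. Top concentration at or near clinical Cmax (else 10 microM), diluted in half-log increments.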

[1] = second compound 0.0316 µM, first compound 0.0316 µM
[2] = second compound 0.0316 µM, first compound 0.1 µM
[3] = second compound 0.0316 µM, first compound 0.316 µM
[4] = second compound 0.0316 µM, first compound 1 µM
[5] = second compound 0.0316 µM, first compound 3.16 µM
[6] = second compound 0.0316 µM, first compound 10 µM
[7] = second compound 0.1 µM, first compound 0.0316 µM
[8] = second compound 0.1 µM, first compound 0.1 µM
[9] = second compound 0.1 µM, first compound 0.316 µM
[10] = second compound 0.1 µM, first compound 1 µM
[11] = second compound 0.1 µM, first compound 3.16 µM
[12] = second compound 0.1 µM, first compound 10 µM
[13] = second compound 0.316 µM, first compound 0.0316 µM
[14] = second compound 0.316 µM, first compound 0.1 µM
[15] = second compound 0.316 µM, first compound 0.316 µM
[16] = second compound 0.316 µM, first compound 1 µM
[17] = second compound 0.316 µM, first compound 3.16 µM
[18] = second compound 0.316 µM, first compound 10 µM
[19] = second compound 1 µM, first compound 0.0316 µM
[20] = second compound 1 µM, first compound 0.1 µM
[21] = second compound 1 µM, first compound 0.316 µM
[22] = second compound 1 µM, first compound 1 µM
[23] = second compound 1 µM, first compound 3.16 µM
[24] = second compound 1 µM, first compound 10 µM
[25] = second compound 3.16 µM, first compound 0.0316 µM
[26] = second compound 3.16 µM, first compound 0.1 µM
[27] = second compound 3.16 µM, first compound 0.316 µM
[28] = second compound 3.16 µM, first compound 1 µM
[29] = second compound 3.16 µM, first compound 3.16 µM
[30] = second compound 3.16 µM, first compound 10 µM
[31] = second compound 10 µM, first compound 0.0316 µM
[32] = second compound 10 µM, first compound 0.1 µM
[33] = second compound 10 µM, first compound 0.316 µM
[34] = second compound 10 µM, first compound 1 µM
[35] = second compound 10 µM, first compound 3.16 µM
[36] = second compound 10 µM, first compound 10 µM
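Note: spheroids exposed to drugs for seven days.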
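Throughout, for viability, T/C: 100% = DMSO vehicle control viability.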

Nc1ccn(C2OC(CO)C(O)C2(F)F)c(=O)n1 (stereo not drawn) + Cc1[nH]c2ccc(F)cc2c1-c1nc2c3cccnc3c3ncccc3c2[nH]1 was tested, and the pIC50 (second compound 0.0316 µM) was under 5.00, the pIC50 (second compound 0.1 µM) was under 5.00 and the pIC50 (second compound 0.316 µM) was under 5.00. For the same compound, the pIC50 (second compound 1 µM) was under 5.00, the pIC50 (second compound 3.16 µM) was over 7.50 and the pIC50 (second compound 10 µM) was over 7.50. The viability, T/C [1] was 102%, the viability, T/C [2] was 74.9% and the viability, T/C [3] was 74.1%. For the same compound, the viability, T/C [4] was 71%, the viability, T/C [5] was 66.2% and the viability, T/C [6] was 78.4%. The viability, T/C [7] was 72.1%, the viability, T/C [8] was 88.4% and the viability, T/C [9] was 61.7%. For the same compound, the viability, T/C [10] was 76.3%, the viability, T/C [11] was 82.9% and the viability, T/C [12] was 67.8%. The viability, T/C [13] was 67%, the viability, T/C [14] was 74.8% and the viability, T/C [15] was 79.4%. For the same compound, the viability, T/C [16] was 73%, the viability, T/C [17] was 83.2% and the viability, T/C [18] was 63.6%. The viability, T/C [19] was 65%, the viability, T/C [20] was 58.5% and the viability, T/C [21] was 68.8%. The viability, T/C [22] was 76.7%, the viability, T/C [23] was 65.8% and the viability, T/C [24] was 64.8%. It also gave a viability, T/C [25] of 53.8%, a viability, T/C [26] of 42% and a viability, T/C [27] of 50.6%. The viability, T/C [28] was 50.1%, the viability, T/C [29] was 51.9% and the viability, T/C [30] was 59.3%. For the same compound, the viability, T/C [31] was 39.7%, the viability, T/C [32] was 43% and the viability, T/C [33] was 43.4%. It also gave a viability, T/C [34] of 40.2%, a viability, T/C [35] of 42.2% and a viability, T/C [36] of 40%.
For Cc1[nH]c2ccccc2c1CCNCc1ccc(/C=C/C(=O)NO)cc1 + Cc1[nH]c2ccc(F)cc2c1-c1nc2c3cccnc3c3ncccc3c2[nH]1, the pIC50 (second compound 0.0316 µM) was 6.99, the pIC50 (second compound 0.1 µM) was 7.14 and the pIC50 (second compound 0.316 µM) was 7.34. The pIC50 (second compound 1 µM) was 7.41, the pIC50 (second compound 3.16 µM) was over 9.00 and the pIC50 (second compound 10 µM) was over 9.00. For the same compound, the viability, T/C (second compound 0.0316 µM, first compound 0.000999 µM) was 82.7%, the viability, T/C (second compound 0.0316 µM, first compound 0.00316 µM) was 100% and the viability, T/C (second compound 0.0316 µM, first compound 0.00999 µM) was 82.1%. The viability, T/C [1] was 96%, the viability, T/C (second compound 0.0316 µM, first compound 0.0999 µM) was 50.5% and the viability, T/C [3] was 13.1%. The viability, T/C (second compound 0.1 µM, first compound 0.000999 µM) was 76.9%, the viability, T/C (second compound 0.1 µM, first compound 0.00316 µM) was 84.2% and the viability, T/C (second compound 0.1 µM, first compound 0.00999 µM) was 62.8%. It also gave a viability, T/C [7] of 68%, a viability, T/C (second compound 0.1 µM, first compound 0.0999 µM) of 43.9% and a viability, T/C [9] of 10.9%. It also gave a viability, T/C (second compound 0.316 µM, first compound 0.000999 µM) of 64.2%, a viability, T/C (second compound 0.316 µM, first compound 0.00316 µM) of 62.3% and a viability, T/C (second compound 0.316 µM, first compound 0.00999 µM) of 46.5%. The viability, T/C [13] was 64%, the viability, T/C (second compound 0.316 µM, first compound 0.0999 µM) was 26.4% and the viability, T/C [15] was 32.4%. The viability, T/C (second compound 1 µM, first compound 0.000999 µM) was 58.9%, the viability, T/C (second compound 1 µM, first compound 0.00316 µM) was 44.6% and the viability, T/C (second compound 1 µM, first compound 0.00999 µM) was 65.7%. The viability, T/C [19] was 50.8%, the viability, T/C (second compound 1 µM, first compound 0.0999 µM) was 37.1% and the viability, T/C [21] was 7.17%. It also gave a viability, T/C (second compound 3.16 µM, first compound 0.000999 µM) of 18.3%, a viability, T/C (second compound 3.16 µM, first compound 0.00316 µM) of 15.9% and a viability, T/C (second compound 3.16 µM, first compound 0.00999 µM) of 21.4%. The viability, T/C [25] was 13.6%, the viability, T/C (second compound 3.16 µM, first compound 0.0999 µM) was 7.05% and the viability, T/C [27] was 6.05%. It also gave a viability, T/C (second compound 10 µM, first compound 0.000999 µM) of 35.8%, a viability, T/C (second compound 10 µM, first compound 0.00316 µM) of 45.9% and a viability, T/C (second compound 10 µM, first compound 0.00999 µM) of 36.5%. The viability, T/C [31] was 39.7%, the viability, T/C (second compound 10 µM, first compound 0.0999 µM) was 35.3% and the viability, T/C [33] was 17.5%.
CC(C)n1c(=O)n(C)c2cnc3cc(F)c(-c4ccc(OCCCN5CCCCC5)nc4)cc3c21 + CN(C)c1ccc(Nc2c3ccc(NC(=O)CCN4CCCC4)cc3nc3cc(NC(=O)CCN4CCCC4)ccc23)cc1 gave a pIC50 (second compound 0.0316 µM) of under 5.00, a pIC50 (second compound 0.1 µM) of under 5.00 and a pIC50 (second compound 0.316 µM) of 5.07. For the same compound, the pIC50 (second compound 1 µM) was under 5.00, the pIC50 (second compound 3.16 µM) was under 5.00 and the pIC50 (second compound 10 µM) was over 7.50. The viability, T/C [1] was 95.3%, the viability, T/C [2] was 103% and the viability, T/C [3] was 99.6%. For the same compound, the viability, T/C [4] was 92.9%, the viability, T/C [5] was 69.2% and the viability, T/C [6] was 53.1%. It also gave a viability, T/C [7] of 91.4%, a viability, T/C [8] of 99.2% and a viability, T/C [9] of 100%. For the same compound, the viability, T/C [10] was 89.2%, the viability, T/C [11] was 60.1% and the viability, T/C [12] was 55.5%. It also gave a viability, T/C [13] of 86.7%, a viability, T/C [14] of 84.3% and a viability, T/C [15] of 75.7%. It also gave a viability, T/C [16] of 86.1%, a viability, T/C [17] of 68.7% and a viability, T/C [18] of 46.9%. For the same compound, the viability, T/C [19] was 61.7%, the viability, T/C [20] was 57.4% and the viability, T/C [21] was 62.1%. For the same compound, the viability, T/C [22] was 72.7%, the viability, T/C [23] was 72.7% and the viability, T/C [24] was 64.8%. For the same compound, the viability, T/C [25] was 55.9%, the viability, T/C [26] was 53.6% and the viability, T/C [27] was 82.4%. It also gave a viability, T/C [28] of 90.1%, a viability, T/C [29] of 81.3% and a viability, T/C [30] of 36.6%. It also gave a viability, T/C [31] of 46.4%, a viability, T/C [32] of 54% and a viability, T/C [33] of 63.4%. The viability, T/C [34] was 83.1%, the viability, T/C [35] was 107% and the viability, T/C [36] was 26.4%.
CC1COCCN1c1cc(-c2ccnn2C)c2ccnc(-c3ccn[nH]3)c2n1 (stereo not drawn) + CN(C)c1ccc(Nc2c3ccc(NC(=O)CCN4CCCC4)cc3nc3cc(NC(=O)CCN4CCCC4)ccc23)cc1 showed a pIC50 (second compound 0.0316 µM) of 5.15, a pIC50 (second compound 0.1 µM) of 5.21 and a pIC50 (second compound 0.316 µM) of 6.29. It also gave a pIC50 (second compound 1 µM) of 6.96, a pIC50 (second compound 3.16 µM) of 6.84 and a pIC50 (second compound 10 µM) of over 7.50. For the same compound, the viability, T/C [1] was 83.7%, the viability, T/C [2] was 77.8% and the viability, T/C [3] was 74.8%. For the same compound, the viability, T/C [4] was 73.1%, the viability, T/C [5] was 55% and the viability, T/C [6] was 47.9%. For the same compound, the viability, T/C [7] was 80.4%, the viability, T/C [8] was 70% and the viability, T/C [9] was 76.6%. The viability, T/C [10] was 69.9%, the viability, T/C [11] was 56.3% and the viability, T/C [12] was 44.1%. For the same compound, the viability, T/C [13] was 77.9%, the viability, T/C [14] was 61.6% and the viability, T/C [15] was 51.6%. It also gave a viability, T/C [16] of 52.5%, a viability, T/C [17] of 35.3% and a viability, T/C [18] of 40.3%. For the same compound, the viability, T/C [19] was 52.9%, the viability, T/C [20] was 54.1% and the viability, T/C [21] was 44.7%. It also gave a viability, T/C [22] of 40.5%, a viability, T/C [23] of 38.2% and a viability, T/C [24] of 34.4%. The viability, T/C [25] was 58.5%, the viability, T/C [26] was 56% and the viability, T/C [27] was 42.6%. The viability, T/C [28] was 40.5%, the viability, T/C [29] was 40.4% and the viability, T/C [30] was 35.5%. It also gave a viability, T/C [31] of 46.2%, a viability, T/C [32] of 40.1% and a viability, T/C [33] of 33.8%. For the same compound, the viability, T/C [34] was 32.6%, the viability, T/C [35] was 39.8% and the viability, T/C [36] was 27.8%.
